Measured values as given in the NIST ThermoML archive (doi:10.1016/j.jct.2012.11.014).
Numbers after ± are expanded uncertainties.

Experiment: xn = mol fraction of the nth substance listed
Conditions: 101 kPa, Liquid; for speed of sound: Frequency=2 MHz, Linear variable-path acoustic interferometer; for viscosity: Oscillating disk viscometry; for mass density: Vibrating tube method

C[NH+](C)C.O=S(=O)([O-])O [trimethylammonium hydrogen sulfate] + C[S+](C)[O-]
Conditions	mass density [kg/m3]	speed of sound [m/s]	viscosity [mPa·s]
298.15 K, x1 = 0.013	1102.89 ± 1	1498 ± 3	2.07 ± 0.13
298.15 K, x1 = 0.0356	1115.76 ± 1	1499 ± 3	2.23 ± 0.14
298.15 K, x1 = 0.0539	1125.92 ± 1.1	1501 ± 3	2.36 ± 0.15
298.15 K, x1 = 0.0982	1149.81 ± 1.1	1504 ± 3	2.62 ± 0.16
298.15 K, x1 = 0.1259	1164.24 ± 1.1	1507 ± 3	2.75 ± 0.17
298.15 K, x1 = 0.1608	1181.78 ± 1.1	1511 ± 3	2.91 ± 0.18
298.15 K, x1 = 0.1982	1199.92 ± 1.1	1514 ± 3	3.09 ± 0.19
298.15 K, x1 = 0.2422	1220.26 ± 1.1	1519 ± 3	3.3 ± 0.21
298.15 K, x1 = 0.2956	1243.91 ± 1.1	1522 ± 3	3.52 ± 0.22
298.15 K, x1 = 0.3855	1281.02 ± 1.1	1528 ± 3	3.84 ± 0.24
298.15 K, x1 = 0.4611	1309.82 ± 1.1	1533 ± 3	4.07 ± 0.26
298.15 K, x1 = 0.545	1339.48 ± 1.1	1536 ± 3	4.3 ± 0.27
298.15 K, x1 = 0.6387	1370.13 ± 1.1	1542 ± 3	4.51 ± 0.29
298.15 K, x1 = 0.7076	1391.08 ± 1.1	1546 ± 3	4.64 ± 0.3
298.15 K, x1 = 0.7823	1412.52 ± 1.1	1548 ± 3	4.78 ± 0.31
298.15 K, x1 = 0.8444	1429.25 ± 1.1	1552 ± 3	4.86 ± 0.31
298.15 K, x1 = 0.907	1445.39 ± 1.1	1556 ± 3	4.95 ± 0.32
298.15 K, x1 = 0.9524	1456.38 ± 1.1	1559 ± 3	5.02 ± 0.32
298.15 K, x1 = 1	1467.58 ± 1.2	1564 ± 3	5.1 ± 0.33
303.15 K, x1 = 0.013	1099.96 ± 1	1475 ± 3	1.89 ± 0.12
303.15 K, x1 = 0.0356	1112.84 ± 1	1477 ± 3	2.03 ± 0.13
303.15 K, x1 = 0.0539	1122.95 ± 1.1	1479 ± 3	2.15 ± 0.13
303.15 K, x1 = 0.0982	1146.81 ± 1.1	1485 ± 3	2.39 ± 0.15
303.15 K, x1 = 0.1259	1161.18 ± 1.1	1488 ± 3	2.54 ± 0.16
303.15 K, x1 = 0.1608	1178.69 ± 1.1	1492 ± 3	2.69 ± 0.17
303.15 K, x1 = 0.1982	1196.87 ± 1.1	1496 ± 3	2.85 ± 0.18
303.15 K, x1 = 0.2422	1217.02 ± 1.1	1501 ± 3	3.02 ± 0.19
303.15 K, x1 = 0.2956	1240.65 ± 1.1	1506 ± 3	3.22 ± 0.2
303.15 K, x1 = 0.3855	1277.68 ± 1.1	1514 ± 3	3.51 ± 0.22
303.15 K, x1 = 0.4611	1306.38 ± 1.1	1522 ± 3	3.71 ± 0.23
303.15 K, x1 = 0.545	1336.01 ± 1.1	1528 ± 3	3.88 ± 0.25
303.15 K, x1 = 0.6387	1366.49 ± 1.1	1532 ± 3	4.05 ± 0.26
303.15 K, x1 = 0.7076	1387.36 ± 1.1	1538 ± 3	4.15 ± 0.27
303.15 K, x1 = 0.7823	1408.73 ± 1.1	1540 ± 3	4.26 ± 0.27
303.15 K, x1 = 0.8444	1425.42 ± 1.1	1545 ± 3	4.32 ± 0.28
303.15 K, x1 = 0.907	1441.51 ± 1.1	1551 ± 3	4.38 ± 0.28
303.15 K, x1 = 0.9524	1452.45 ± 1.1	1556 ± 3	4.43 ± 0.29
303.15 K, x1 = 1	1463.57 ± 1.2	1560 ± 3	4.48 ± 0.29
308.15 K, x1 = 0.013	1093.72 ± 1	1462 ± 3	1.75 ± 0.11
308.15 K, x1 = 0.0356	1106.81 ± 1	1466 ± 3	1.88 ± 0.12
308.15 K, x1 = 0.0539	1116.99 ± 1.1	1469 ± 3	1.99 ± 0.12
308.15 K, x1 = 0.0982	1141.18 ± 1.1	1476 ± 3	2.23 ± 0.14
308.15 K, x1 = 0.1259	1155.67 ± 1.1	1478 ± 3	2.35 ± 0.15
308.15 K, x1 = 0.1608	1173.53 ± 1.1	1484 ± 3	2.51 ± 0.16
308.15 K, x1 = 0.1982	1191.94 ± 1.1	1490 ± 3	2.67 ± 0.17
308.15 K, x1 = 0.2422	1212.56 ± 1.1	1494 ± 3	2.82 ± 0.18
308.15 K, x1 = 0.2956	1236.49 ± 1.1	1500 ± 3	3 ± 0.19
308.15 K, x1 = 0.3855	1274.01 ± 1.1	1510 ± 3	3.24 ± 0.21
308.15 K, x1 = 0.4611	1303.22 ± 1.1	1516 ± 3	3.41 ± 0.22
308.15 K, x1 = 0.545	1333.32 ± 1.1	1524 ± 3	3.54 ± 0.23
308.15 K, x1 = 0.6387	1364.4 ± 1.1	1530 ± 3	3.68 ± 0.24
308.15 K, x1 = 0.7076	1385.63 ± 1.1	1534 ± 3	3.73 ± 0.25
308.15 K, x1 = 0.7823	1407.49 ± 1.1	1538 ± 3	3.81 ± 0.25
308.15 K, x1 = 0.8444	1424.52 ± 1.1	1544 ± 3	3.85 ± 0.26
308.15 K, x1 = 0.907	1440.98 ± 1.1	1547 ± 3	3.88 ± 0.26
308.15 K, x1 = 0.9524	1452.15 ± 1.1	1552 ± 3	3.92 ± 0.27
308.15 K, x1 = 1	1463.5 ± 1.2	1556 ± 3	3.94 ± 0.27
313.15 K, x1 = 0.013	1089.1 ± 1	1447 ± 3	1.64 ± 0.1
313.15 K, x1 = 0.0356	1102.07 ± 1	1449 ± 3	1.75 ± 0.11
313.15 K, x1 = 0.0539	1112.21 ± 1	1452 ± 3	1.85 ± 0.12
313.15 K, x1 = 0.0982	1136.31 ± 1.1	1460 ± 3	2.06 ± 0.13
313.15 K, x1 = 0.1259	1150.73 ± 1.1	1464 ± 3	2.17 ± 0.14
313.15 K, x1 = 0.1608	1168.35 ± 1.1	1471 ± 3	2.31 ± 0.15
313.15 K, x1 = 0.1982	1186.62 ± 1.1	1476 ± 3	2.45 ± 0.16
313.15 K, x1 = 0.2422	1207.12 ± 1.1	1483 ± 3	2.56 ± 0.16
313.15 K, x1 = 0.2956	1230.97 ± 1.1	1490 ± 3	2.7 ± 0.17
313.15 K, x1 = 0.3855	1268.16 ± 1.1	1501 ± 3	2.88 ± 0.19
313.15 K, x1 = 0.4611	1297.1 ± 1.1	1510 ± 3	3 ± 0.2
313.15 K, x1 = 0.545	1326.92 ± 1.1	1516 ± 3	3.08 ± 0.21
313.15 K, x1 = 0.6387	1357.69 ± 1.1	1525 ± 3	3.14 ± 0.22
313.15 K, x1 = 0.7076	1378.66 ± 1.1	1530 ± 3	3.16 ± 0.22
313.15 K, x1 = 0.7823	1400.24 ± 1.1	1536 ± 3	3.18 ± 0.23
313.15 K, x1 = 0.8444	1417.09 ± 1.1	1540 ± 3	3.18 ± 0.23
313.15 K, x1 = 0.907	1433.37 ± 1.1	1545 ± 3	3.18 ± 0.24
313.15 K, x1 = 0.9524	1444.43 ± 1.1	1549 ± 3	3.17 ± 0.24
313.15 K, x1 = 1	1455.63 ± 1.2	1552 ± 3	3.16 ± 0.25
